pIC50: −log10 of the molar value. Activity calls are given as the source filed them. No cut-off for these calls is given here.
Tests used:
RAW264.7 [1] = experiment: Anti-inflammatory activity in mouse RAW264.7 cells assessed as inhibition of LPS-induced NO production preincubated for 2 hrs followed by LPS addition and measured after 18 hrs by Griess reagent-based assay; type: functional, cell-based
[2] = molecular target: T1, Inhibitor of nuclear factor kappa-B kinase subunit beta (Mus musculus) (UniProt O88351); experiment: Inhibition of IKKbeta in mouse RAW264.7 cells assessed as inhibition of LPS-induced IKK-beta phosphorylation level after 16 hrs by Western blot analysis; type: cell-based
T1 sequence (whole entry): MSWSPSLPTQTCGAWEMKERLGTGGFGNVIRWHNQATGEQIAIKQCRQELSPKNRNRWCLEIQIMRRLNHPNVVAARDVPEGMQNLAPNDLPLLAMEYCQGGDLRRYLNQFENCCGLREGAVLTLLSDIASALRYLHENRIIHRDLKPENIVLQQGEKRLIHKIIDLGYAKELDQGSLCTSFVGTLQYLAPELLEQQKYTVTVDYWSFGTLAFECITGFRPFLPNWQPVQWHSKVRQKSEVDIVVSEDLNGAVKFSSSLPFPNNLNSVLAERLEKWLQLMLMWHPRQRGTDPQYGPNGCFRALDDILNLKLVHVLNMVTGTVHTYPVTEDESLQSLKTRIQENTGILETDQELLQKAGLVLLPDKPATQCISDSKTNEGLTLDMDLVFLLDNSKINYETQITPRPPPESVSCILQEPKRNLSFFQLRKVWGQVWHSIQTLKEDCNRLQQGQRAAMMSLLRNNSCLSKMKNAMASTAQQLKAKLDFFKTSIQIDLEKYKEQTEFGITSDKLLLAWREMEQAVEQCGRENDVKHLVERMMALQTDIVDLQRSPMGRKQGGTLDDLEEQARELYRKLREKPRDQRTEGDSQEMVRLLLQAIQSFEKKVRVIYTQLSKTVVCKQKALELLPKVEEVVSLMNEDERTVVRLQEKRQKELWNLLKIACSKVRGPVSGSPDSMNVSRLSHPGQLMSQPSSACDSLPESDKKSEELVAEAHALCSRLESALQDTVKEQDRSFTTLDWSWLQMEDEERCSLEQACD

RAW264.7 [3] = experiment: Anti-inflammatory activity in mouse RAW264.7 cells assessed as inhibition of LPS-induced IL-1beta level after 24 hrs by ELISA; type: functional, cell-based
RAW264.7 [4] = experiment: Anti-inflammatory activity in mouse RAW264.7 cells assessed as inhibition of LPS-induced IL-6 level after 24 hrs by ELISA; type: functional, cell-based
RAW264.7 [5] = experiment: Cytotoxicity against mouse RAW264.7 cells assessed as reduction in cell viability at 3.1 to 25 uM after 48 hrs by MTT assay; type: cell-based; conditions: raw264.7, 48 h, dose 3.1-25 µM
[6] = molecular target: T2, Inhibitor of nuclear factor kappa-B kinase subunit alpha (Mus musculus) (UniProt Q60680); experiment: Inhibition of IKKalpha in mouse RAW264.7 cells assessed as inhibition of LPS-induced IKK-alpha phosphorylation level after 16 hrs by Western blot analysis; type: cell-based
T2 sequence (whole entry): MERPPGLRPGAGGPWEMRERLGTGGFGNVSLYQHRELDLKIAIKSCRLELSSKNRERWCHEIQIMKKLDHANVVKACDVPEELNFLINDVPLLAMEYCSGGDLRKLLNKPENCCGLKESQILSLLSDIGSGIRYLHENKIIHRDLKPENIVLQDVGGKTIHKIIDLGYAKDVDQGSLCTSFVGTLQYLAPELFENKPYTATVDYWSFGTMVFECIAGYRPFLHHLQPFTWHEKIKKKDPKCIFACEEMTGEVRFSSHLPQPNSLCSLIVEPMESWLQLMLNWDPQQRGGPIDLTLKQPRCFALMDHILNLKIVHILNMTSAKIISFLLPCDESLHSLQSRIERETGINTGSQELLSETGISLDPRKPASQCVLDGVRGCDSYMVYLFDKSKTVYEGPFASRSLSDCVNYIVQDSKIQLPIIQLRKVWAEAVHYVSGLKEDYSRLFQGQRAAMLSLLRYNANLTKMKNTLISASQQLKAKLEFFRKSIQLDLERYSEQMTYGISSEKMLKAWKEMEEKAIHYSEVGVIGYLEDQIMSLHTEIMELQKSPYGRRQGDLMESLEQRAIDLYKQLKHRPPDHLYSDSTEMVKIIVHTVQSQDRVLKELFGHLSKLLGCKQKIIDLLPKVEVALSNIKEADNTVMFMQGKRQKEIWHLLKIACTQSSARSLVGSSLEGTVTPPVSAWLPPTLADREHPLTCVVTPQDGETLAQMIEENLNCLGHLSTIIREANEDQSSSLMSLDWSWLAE

RAW264.7 [7] = experiment: Anti-inflammatory activity in mouse RAW264.7 cells assessed as inhibition of LPS-induced iNOS level after 16 hrs by Western blot analysis; type: functional, cell-based
RAW264.7 [8] = experiment: Anti-inflammatory activity in mouse RAW264.7 cells assessed as inhibition of LPS-induced TNF-alpha level after 24 hrs by ELISA; type: functional, cell-based
RAW264.7 [9] = experiment: Anti-inflammatory activity in mouse RAW264.7 cells assessed as inhibition of LPS-induced COX-2 level after 16 hrs by Western blot analysis; type: functional, cell-based

SMILES	pIC50 (RAW264.7 [1])	other results
C[C@@H]1C(=O)C(O)=C2C(C)(C)C(=O)CC[C@]2(C)[C@@]1(O)CCc1ccoc1	< 4.30	–
CC1=C(CCc2ccoc2)[C@@]2(C)CCC(=O)C(C)(C)C2=C(O)C1=O	< 4.30	–
C[C@H]1C(=O)[C@@H](O)[C@H]2C(C)(C)C(=O)CC[C@]2(C)[C@@]1(O)CCc1ccoc1	< 4.30	–
CCC(=O)[C@H]1O/C(=C\Cc2ccoc2)[C@@]2(C)CCCC(C)(C)[C@H]12	< 4.30	–
CCC(=O)[C@H]1O[C@@](CCC2=CC(OC)OC2=O)(OC)[C@@]2(C)CC[C@@H](OC(C)=O)C(C)(C)[C@H]12 (stereo partly specified)	< 4.30	–
CC1=C(CCc2ccoc2)[C@@]2(C)CCCC(C)(C)C2=C(O)C1=O	4.34	–
CC1=C(CCc2ccoc2)[C@@]2(C)CCC(=O)C(C)(C)[C@@H]2[C@@H](O)C1=O	< 4.30	–
CC1=C(CCc2ccoc2)[C@@]2(C)CCCC(C)(C)[C@@H]2[C@H](O)C1=O	< 4.30	–
CO[C@H]1C=C(CCC2=C(C)C(=O)C(O)=C3C(C)(C)C(=O)CC[C@]23C)C(=O)O1	< 4.30	–
COC(OC)[C@@]1(C)CCC[C@@]2(C)[C@H]1CC=C(C)[C@@H]2CC/C(C)=C/CO	< 4.30	–
CO[C@@H]1C=C(CCC2=C(C)C(=O)C(O)=C3C(C)(C)C(=O)CC[C@]23C)C(=O)O1	< 4.30	–
CC(=O)O[C@@H]1CC[C@]2(C)C(CCC3=CCOC3=O)=C(C)C(=O)[C@@H](O)[C@H]2C1(C)C	< 4.30	–
CCC(O)C(=O)[C@H]1C(C)(C)CCC[C@]1(C)C(=O)CCC1=CCOC1=O (stereo partly specified)	< 4.30	–
CCC(=O)C1O[C@](O)(CCc2ccoc2)[C@@]2(C)CCCC(C)(C)[C@H]12 (single isomer, unassigned)	< 4.30	–
CC1=C(CCc2ccoc2)[C@@]2(C)CC[C@@H](O)C(C)(C)[C@@H]2[C@H](O)C1=O	< 4.30	–
CC(=O)O[C@@H]1CC[C@@]2(C)[C@@H](C(=O)[C@H](O)[C@@H](C)[C@]2(O)CCc2ccoc2)C1(C)C	< 4.30	–
CCC(O)C(=O)[C@H]1C(C)(C)C(=O)CC[C@]1(C)C(=O)CCc1ccoc1 (stereo partly specified)	< 4.30	–
C[C@@H]1[C@@H](O)C(=O)[C@H]2C(C)(C)CCC[C@]2(C)[C@@]1(O)CCc1ccoc1	< 4.30	–
CCOC1CC(O)(CCC2=C(C)C(=O)[C@@H](O)[C@H]3C(C)(C)CCC[C@]23C)CO1 (stereo partly specified)	< 4.30	–
CCC(=O)[C@H]1O[C@@](CCc2ccoc2)(OC)[C@@]2(C)CCCC(C)(C)[C@H]12	< 4.30	–

These reach a higher pIC50 (RAW264.7 [1]). Values come first.

pIC50 (RAW264.7 [1])	SMILES	other results
4.66	CCOC1CC(O)(CCC2=C(C)C(=O)C(O)=C3C(C)(C)[C@H](OC(C)=O)CC[C@]23C)CO1 (stereo partly specified)	–
4.56	COC1C=C(CCC2=C(C)C(=O)[C@@H](O)[C@H]3C(C)(C)[C@H](O)CC[C@]23C)C(=O)O1 (stereo partly specified)	–
4.65	CC(=O)O[C@@H]1CC[C@]2(C)C(CCc3ccoc3)=C(C)C(=O)[C@@H](O)[C@H]2C1(C)C	–
4.39	COC1C=C(CCC2=C(C)C(=O)C(O)=C3C(C)(C)[C@H](OC(C)=O)CC[C@]23C)C(=O)O1 (stereo partly specified)	–
4.64	CCOC1CC(O)(CCC2=C(C)C(=O)C(O)=C3C(C)(C)C(=O)CC[C@]23C)CO1 (stereo partly specified)	–
4.39	CC1=CC[C@@H]2[C@](C)(CCC[C@]2(C)C(=O)O)[C@H]1CC/C(C)=C/CO	–
4.61	COC1C=C(CC[C@@]2(O)[C@H](C)C(=O)[C@@H](O)[C@H]3C(C)(C)CCC[C@@]32C)C(=O)O1 (stereo partly specified)	–
4.48	CC1=CC[C@H]2[C@@](C)(CO)CCC[C@]2(C)[C@H]1CC/C(C)=C/CO	–
4.70	CC1=CC[C@H]2C(C)(C)CCC[C@]2(C)[C@H]1CC/C(C)=C/CO	–
4.52	CCOC1CC(O)(CCC2=C(C)C(=O)[C@@H](O)[C@H]3C(C)(C)[C@H](OC(C)=O)CC[C@]23C)CO1 (stereo partly specified)	–
4.80	CCC(=O)[C@H]1O[C@](O)(CCC2=CC(OC)OC2=O)[C@@]2(C)CCCC(C)(C)[C@H]12 (stereo partly specified)	–
4.36	CC1=C(CCC2=CCOC2=O)[C@@]2(C)CCCC(C)(C)[C@@H]2CC1=O	–
4.66	CCC(=O)[C@H]1O[C@@](CCC2=CCOC2=O)(OC)[C@@]2(C)CCCC(C)(C)[C@H]12	–
4.54	CC1=CC[C@@H]2[C@](C)(CCC[C@]2(C)C=O)[C@H]1CC/C(C)=C/CO	–
5.41	CCC(=O)[C@H]1O[C@@](CCC2=CC(OC)OC2=O)(OC)[C@@]2(C)CCCC(C)(C)[C@H]12 (stereo partly specified)	inhibition [2]: Active; inhibition (RAW264.7 [3]): Dose-dependent effect; inhibition (RAW264.7 [4]): Dose-dependent effect; Activity (RAW264.7 [5]): Non-Toxic; inhibition [6]: Active; inhibition (RAW264.7 [7]): Active; inhibition (RAW264.7 [8]): Dose-dependent effect; inhibition (RAW264.7 [9]): Active
4.61	C[C@@H]1C[C@H]2[C@@H]3CCC4=CC(=O)C=C[C@]4(C)[C@@]3(F)[C@@H](O)C[C@]2(C)[C@@]1(O)C(=O)CO [DEXAMETHASONE]	–
4.58	COC1CC(O)(CCC2=C(C)C(=O)[C@@H](O)[C@H]3C(C)(C)CCC[C@]23C)CO1 (stereo partly specified)	–
4.48	C=C1CC[C@H]2C(C)(C)CCC[C@]2(C)[C@H]1CC/C(C)=C/CO	–

Reference: ChEMBL document CHEMBL4665814, “Structurally Diverse Labdane Diterpenoids from Leonurus japonicus and Their Anti-inflammatory Properties in LPS-Induced RAW264.7 Cells” (J Nat Prod, 2020)
